Patent US6100073A, “Acid-stable and thermo-stable enzymes derived from sulfolobus species” (Genencor International, Inc., priority 1994, dated 2000)

Biological target: enzyme having α-1,4 hydrolytic activity derived from Sulfolobus acidocaldarius DSM 639 (purified, about 95 kDa; EC 3.2.1.1 / amylopullulanase) (Sulfolobus acidocaldarius, UniProt Q4J9M2)
Assay: biochemical
Procedure: In a hermetically sealed tube, 25 μl of solution C was mixed with 25 μl of water and then added to 250 μl of a solution containing 0.1% (w/v) Lintner'starch (Baker), citrate/phosphate buffer (100 mM/200 mM) at various pH values (as described in detail below). The mixture was then incubated for 15 minutes at various temperatures (see below). Incubation was terminated by transferring the tube to an ice/water bath (0° C.).
The absorbance was measured at 620 nm (Pharmacia LKB Ultraspec Plus).
A blank assay was performed by replacing the 50 μl enzyme solution C with water.
The relative activity (relative units) was calculated from the standard curve by calculation of the value [(ODb -ODs)/ODb ]×100, and then linearly extrapolating the corresponding volume (μl) from the two closest points of the standard curve.
The relative (α-1,4 hydrolytic) activity (%) is defined as the extrapolated volume value (μl), deduced from the standard curve.
Respective samples of Solution C were obtained and prepared as described above in Example 4 to perform the standard assay.
The influence of various metal cations and of EDTA on the α-1,4 hydrolytic activity of the enzyme derived from Sulfolobus acidocaldarius DSM 639 was determined by running the standard assay described above in Example 4 on each of the tubes (samples) in the presence of the additional various metal cations at a final concentration of 2, 5, and 10 mM.

[1] = read-out: Relative activity (%)

enzyme having α-1,4 hydrolytic activity derived from Sulfolobus acidocaldarius DSM 639 (purified, about 95 kDa; EC 3.2.1.1 / amylopullulanase), sequence (Q4J9M2 1-884): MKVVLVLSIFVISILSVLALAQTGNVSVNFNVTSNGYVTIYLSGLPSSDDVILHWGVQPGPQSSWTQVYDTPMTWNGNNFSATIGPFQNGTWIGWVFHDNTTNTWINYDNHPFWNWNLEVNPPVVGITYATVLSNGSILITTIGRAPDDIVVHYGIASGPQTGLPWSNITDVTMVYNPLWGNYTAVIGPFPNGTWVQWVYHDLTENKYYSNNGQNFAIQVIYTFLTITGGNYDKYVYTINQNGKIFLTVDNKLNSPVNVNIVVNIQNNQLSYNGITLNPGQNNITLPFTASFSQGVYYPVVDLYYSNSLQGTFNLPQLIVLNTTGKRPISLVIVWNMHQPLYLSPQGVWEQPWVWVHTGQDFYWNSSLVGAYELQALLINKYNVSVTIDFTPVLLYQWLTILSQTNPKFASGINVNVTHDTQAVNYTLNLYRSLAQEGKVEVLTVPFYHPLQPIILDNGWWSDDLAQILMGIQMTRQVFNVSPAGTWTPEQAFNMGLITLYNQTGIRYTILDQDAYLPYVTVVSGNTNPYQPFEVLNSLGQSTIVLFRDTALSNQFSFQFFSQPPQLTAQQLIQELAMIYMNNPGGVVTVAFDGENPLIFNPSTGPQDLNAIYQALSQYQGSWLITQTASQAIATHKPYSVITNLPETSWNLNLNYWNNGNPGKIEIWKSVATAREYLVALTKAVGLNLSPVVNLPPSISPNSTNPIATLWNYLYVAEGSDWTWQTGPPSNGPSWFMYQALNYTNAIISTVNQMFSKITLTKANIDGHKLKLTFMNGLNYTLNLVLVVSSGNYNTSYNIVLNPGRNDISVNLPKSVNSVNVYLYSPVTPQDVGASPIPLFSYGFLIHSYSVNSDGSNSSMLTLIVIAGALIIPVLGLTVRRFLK

`O=C(O)CN(CCN(CC(=O)O)CC(=O)O)CC(=O)O` [EDTA] was tested, and the “α-1,4 hydrolytic activity in the absence of calcium (with EDTA)” value (EDTA 2-10 mM, summary of Table 6) was “fully active”, the activity at 2000 µM [1] was 97% and the activity at 5000 µM [1] was 101%. The activity at 10000 µM [1] was 98%.
